Test: xn = mol fraction of the nth substance listed
Conditions: 101 kPa, Liquid; for speed of sound: Sing-around technique in a fixed-path interferometer; for mass density: Vibrating tube method

CC(O)CO (centres undefined) [1,2-propanediol] + CCCCn1cc[n+](C)c1.F[B-](F)(F)F
Conditions | mass density [kg/m3] | speed of sound [m/s]
293.15 K, x2 = 0.0521 | 1056.41 | 1527.9
293.15 K, x2 = 0.1068 | 1074.4 | 1532.7
293.15 K, x2 = 0.2089 | 1101.55 | 1538.5
293.15 K, x2 = 0.3074 | 1122.27 | 1543.9
293.15 K, x2 = 0.4035 | 1139.05 | 1549.8
293.15 K, x2 = 0.5031 | 1153.8 | 1554.6
293.15 K, x2 = 0.5907 | 1164.95 | 1559
293.15 K, x2 = 0.7031 | 1177.42 | 1564.6
293.15 K, x2 = 0.8 | 1187.25 | 1568.6
293.15 K, x2 = 0.8992 | 1196.18 | 1572
298.15 K, x2 = 0.0521 | 1052.69 | 1515.3
298.15 K, x2 = 0.1068 | 1070.64 | 1520
298.15 K, x2 = 0.2089 | 1097.72 | 1526.2
298.15 K, x2 = 0.3074 | 1118.42 | 1531.5
298.15 K, x2 = 0.4035 | 1135.23 | 1537.5
298.15 K, x2 = 0.5031 | 1150.01 | 1542.5
298.15 K, x2 = 0.5907 | 1161.21 | 1547
298.15 K, x2 = 0.7031 | 1173.74 | 1552.6
298.15 K, x2 = 0.8 | 1183.62 | 1556.7
298.15 K, x2 = 0.8992 | 1192.57 | 1560.5
303.15 K, x2 = 0.0521 | 1048.94 | 1502.2
303.15 K, x2 = 0.1068 | 1066.85 | 1507
303.15 K, x2 = 0.2089 | 1093.89 | 1513.8
303.15 K, x2 = 0.3074 | 1114.58 | 1519.2
303.15 K, x2 = 0.4035 | 1131.41 | 1525.3
303.15 K, x2 = 0.5031 | 1146.23 | 1530.3
303.15 K, x2 = 0.5907 | 1157.48 | 1535
303.15 K, x2 = 0.7031 | 1170.07 | 1540.7
303.15 K, x2 = 0.8 | 1180 | 1544.9
303.15 K, x2 = 0.8992 | 1188.99 | 1549
308.15 K, x2 = 0.0521 | 1045.16 | 1488.9
308.15 K, x2 = 0.1068 | 1063.06 | 1494
308.15 K, x2 = 0.2089 | 1090.06 | 1501.1
308.15 K, x2 = 0.3074 | 1110.75 | 1506.8
308.15 K, x2 = 0.4035 | 1127.62 | 1513.1
308.15 K, x2 = 0.5031 | 1142.48 | 1518.2
308.15 K, x2 = 0.5907 | 1153.77 | 1523
308.15 K, x2 = 0.7031 | 1166.42 | 1528.9
308.15 K, x2 = 0.8 | 1176.39 | 1533.2
308.15 K, x2 = 0.8992 | 1185.42 | 1537.5
313.15 K, x2 = 0.0521 | 1041.36 | 1475.6
313.15 K, x2 = 0.1068 | 1059.24 | 1481.1
313.15 K, x2 = 0.2089 | 1086.22 | 1488.5
313.15 K, x2 = 0.3074 | 1106.92 | 1494.5
313.15 K, x2 = 0.4035 | 1123.83 | 1501
313.15 K, x2 = 0.5031 | 1138.74 | 1506.2
313.15 K, x2 = 0.5907 | 1150.08 | 1511.1
313.15 K, x2 = 0.7031 | 1162.79 | –
313.15 K, x2 = 0.8 | 1172.81 | 1521.7
313.15 K, x2 = 0.8992 | 1181.86 | 1526.1
318.15 K, x2 = 0.0521 | 1037.53 | 1462.3
318.15 K, x2 = 0.1068 | 1055.4 | 1468.1
318.15 K, x2 = 0.2089 | 1082.38 | 1476
318.15 K, x2 = 0.3074 | 1103.1 | 1482.3
318.15 K, x2 = 0.4035 | 1120.04 | 1488.9
318.15 K, x2 = 0.5031 | 1135.01 | 1494.3
318.15 K, x2 = 0.5907 | 1146.4 | 1499.4
318.15 K, x2 = 0.7031 | 1159.17 | 1505.6
318.15 K, x2 = 0.8 | 1169.23 | 1510.3
318.15 K, x2 = 0.8992 | 1178.32 | 1515
